Results as given in US20240148645A1, “NON-NANOPARTICULATE APPLICATION FORMS OF MACROLIDES” (Nucleus Medical GmbH, priority 2021, published 2024).
Converted amounts (≈) assume the structure as drawn.

Assays:
[1] = low solubility and high permeability; cited from earlier work
[2] = Saturation solubility of tacrolimus in different solvents; format: physicochemical; settings: for solubility: thermodynamic from solid, room temperature
Method: Tacrolimus was dissolved in an organic solvent. Particularly, the saturation solubility of tacrolimus in different organic solvents was tested. Crystalline active ingredient was added to a defined amount of solvent at room temperature while stirring until an insoluble sediment was formed. After filtration, the concentration of active ingredient was quantified by HPLC in the supernatant.

Solubility in tested organic solvents [2]: soluble in all tested organic solvents
solubility ([2]; organic solvent or mixture, Acetic Acid): 545 mg/mL (≈ 678 mM)
solubility ([2]; organic solvent or mixture, DMSO): 582 mg/mL (≈ 724 mM)
solubility ([2]; organic solvent or mixture, Ethanol): 389 mg/mL (≈ 484 mM)
solubility ([2]; organic solvent or mixture, iso-Propanol): 243 mg/mL (≈ 302 mM)
solubility ([2]; Water): 0.00076 mg/mL (≈ 0.000945 mM)
Structure (SMILES): C=CC[C@@H]1/C=C(\C)C[C@H](C)C[C@H](OC)[C@H]2O[C@@](O)(C(=O)C(=O)N3CCCC[C@H]3C(=O)O[C@H](/C(C)=C/[C@@H]3CC[C@@H](O)[C@H](OC)C3)[C@H](C)[C@@H](O)CC1=O)[C@H](C)C[C@@H]2OC [Tacrolimus]
BCS class [1]: BCS class II
